Here are results for 1 compound from patent US20230276794A1, “MESH MATERIALS FOR CONTROLLED RELEASE OF ANTIVIRALS, METHOD AND USE” (priority 2020, published 2023).

For the assay, the system named is Coronavirus (MHV-3 Strain). Type of assay: cell-based, Coronavirus MHV-3 Strain genus Betacoronavirus. The settings on record: concentration of 5%.

As for `N=C(NCCCCCCNC(=N)NC(=N)Nc1ccc(Cl)cc1)NC(=N)Nc1ccc(Cl)cc1` [5% Chlorhexidine, 1,1′-hexamethylene-bis(5-(p-chlorophenyl)-biguanide)], the “time after which activity was lost” value was found to be 10 min.
